The text below walks through data of the supplement of paper PMC11208160.

The data set in a line: recombinant UMI read abundance after kanamycin selection (control-corrected) (log10(CPM+1)); higher = more efficient recombination; extreme values may be limits of the assay; sequences stand for … in AGTGCAGAGAAAATCGGCCAGTTTTCTCTGCCTGCAGTCCGCATGCCGTGGGACCCCTTGGGTTCTAACCTGTTGCCTAGATTTATGCAGCGGACTGCCTTTCTCCCAAAGTGATAAACCGG…AGGTTGGTTTCACT; site = the 11-nt donor. Summed up: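 Values are reported as log10(CPM+1), obtained by converting sequencing counts to CPM, averaging replicates and scaling by control-derived factors. The counts came from recombinant UMIs amplified by PCR across the donor–target junction. These UMIs came from a pooled Escherichia coli screen of donor and donor-binding-loop pairs for the IS621 bridge recombinase, plated with IPTG (0.07 mM) plus kanamycin or left unselected, in two replicates each.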
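Also: IS621 bridge recombinase in Escherichia coli cells against a fixed T5 target plasmid.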

Take “CATTATGCATGGACCGGTTTTCCCGGTAATCCGTATTTGGA (site TATTATGCTTC)”: the “recombinant UMI read abundance (log10)” value was found to be 0.208.
Turning to “CATTCAGCATGGACCGGTTTTCCCGGTAATCCGTATTTGCA (site CATTCAGCTTG)”, the “recombinant UMI read abundance (log10)” value was 1.05.
As to “CATTCATCATGGACCGGTTTTCCCGGTAATCCGTATTTGCT (site CATTCATCTAG)”, the “recombinant UMI read abundance (log10)” value worked out at 1.4.
For “CATTCATCATGGACCGGTTTTCCCGGTAATCCGTATTTGCT (site CGATCATCTAG)”, the “recombinant UMI read abundance (log10)” value is 0.633.
On to “CATTCGCCATGGACCGGTTTTCCCGGTAATCCGTATTTGAG (site CATTCGCCTCT)”, for which the “recombinant UMI read abundance (log10)” value is 0.00436.
“CATTCGGCATGGACCGGTTTTCCCGGTAATCCGTATTTGCA (site CATTCGGCTTG)”: the “recombinant UMI read abundance (log10)” value came out at 1.15.
With “CATTGAGCATGGACCGGTTTTCCCGGTAATCCGTATTTGTA (site CATTGAGCTTA)”, the “recombinant UMI read abundance (log10)” value is 2.06.
Take “CATTGCCCATGGACCGGTTTTCCCGGTAATCCGTATTTGAC (site CATTGCCCTGT)”: the “recombinant UMI read abundance (log10)” value is 0.844.
For “CATTTGGCATGGACCGGTTTTCCCGGTAATCCGTATTTGCT (site CATTTGGCTAG)”, the “recombinant UMI read abundance (log10)” value came out at 0.
The value for “CATTTGGCATGGACCGGTTTTCCCGGTAATCCGTATTTGCT (site CCTTTGGCTAG)” was 0; that for “CATTTGGCATGGACCGGTTTTCCCGGTAATCCGTATTTGCT (site CGTTTGGCTAG)” was 0; that for “CATTTGGCATGGACCGGTTTTCCCGGTAATCCGTATTTGCT (site CTTTTGGCTAG)” was 0.00821.
With “CATTTGGCATGGACCGGTTTTCCCGGTAATCCGTATTTGGA (site CAATTGGCTTC)”, the “recombinant UMI read abundance (log10)” value was determined as 0.313.
Consider “CATTTGGCATGGACCGGTTTTCCCGGTAATCCGTATTTGGA (site CACTTGGCTTC)”, for which the “recombinant UMI read abundance (log10)” value was 0.438.
“CATTTGGCATGGACCGGTTTTCCCGGTAATCCGTATTTGGA (site CAGTTGGCTTC)”: the “recombinant UMI read abundance (log10)” value came out at 0.466.
Turning to “CATTTGGCATGGACCGGTTTTCCCGGTAATCCGTATTTGGA (site CATTTGGCTTC)”, the “recombinant UMI read abundance (log10)” value came out at 0.328.
In the case of “CCAAAAGCATGGACCGGTTTTCCCGGTAATCCGTATTTGAT (site CCAAAAGCTAT)”, the “recombinant UMI read abundance (log10)” value worked out at 1.34.
As to “CCAAAAGCATGGACCGGTTTTCCCGGTAATCCGTATTTGAT (site CCCAAAGCTAT)”, the “recombinant UMI read abundance (log10)” value was found to be 0.
As to “CCAAAAGCATGGACCGGTTTTCCCGGTAATCCGTATTTGAT (site CCGAAAGCTAT)”, the “recombinant UMI read abundance (log10)” value turned out to be 0.
For the sequence “CCAAAAGCATGGACCGGTTTTCCCGGTAATCCGTATTTGAT (site CCTAAAGCTAT)”, the “recombinant UMI read abundance (log10)” value was determined as 0.
Regarding “CCAAAGACATGGACCGGTTTTCCCGGTAATCCGTATTTGCA (site CCAAAGACTTG)”, the “recombinant UMI read abundance (log10)” value was found to be 2.26.
“CCAACTTCATGGACCGGTTTTCCCGGTAATCCGTATTTGAT (site CCAACTTCTAT)”: the “recombinant UMI read abundance (log10)” value amounted to 0.
For the sequence “CCAATATCATGGACCGGTTTTCCCGGTAATCCGTATTTGAG (site CCAATATCTCT)”, the “recombinant UMI read abundance (log10)” value was determined as 1.21.
As to “CCAATCACATGGACCGGTTTTCCCGGTAATCCGTATTTGGG (site CCAATCACTCC)”, the “recombinant UMI read abundance (log10)” value amounted to 0.336.
Take “CCAATTGCATGGACCGGTTTTCCCGGTAATCCGTATTTGAG (site CCAATTGCTCT)”: the “recombinant UMI read abundance (log10)” value was 0.865.
As to “CCACAGTCATGGACCGGTTTTCCCGGTAATCCGTATTTGTG (site CCACAGTCTCA)”, the “recombinant UMI read abundance (log10)” value worked out at 1.93.
As to “CCACATCCATGGACCGGTTTTCCCGGTAATCCGTATTTGAC (site ACACATCCTGT)”, the “recombinant UMI read abundance (log10)” value is 0.
With “CCACATCCATGGACCGGTTTTCCCGGTAATCCGTATTTGAC (site CCACATCCTGT)”, the “recombinant UMI read abundance (log10)” value turned out to be 0.
Take “CCACATCCATGGACCGGTTTTCCCGGTAATCCGTATTTGAC (site GCACATCCTGT)”: the “recombinant UMI read abundance (log10)” value turned out to be 0.
With “CCACATCCATGGACCGGTTTTCCCGGTAATCCGTATTTGAC (site TCACATCCTGT)”, the “recombinant UMI read abundance (log10)” value was determined as 0.
For the sequence “CCACGTGCATGGACCGGTTTTCCCGGTAATCCGTATTTGAT (site CCAAGTGCTAT)”, the “recombinant UMI read abundance (log10)” value turned out to be 0.0041.
Turning to “CCACGTGCATGGACCGGTTTTCCCGGTAATCCGTATTTGAT (site CCACGTGCTAT)”, the “recombinant UMI read abundance (log10)” value is 0.871.
“CCACGTGCATGGACCGGTTTTCCCGGTAATCCGTATTTGAT (site CCAGGTGCTAT)”: the “recombinant UMI read abundance (log10)” value was found to be 0.0128.
On to “CCACGTGCATGGACCGGTTTTCCCGGTAATCCGTATTTGAT (site CCATGTGCTAT)”, for which the “recombinant UMI read abundance (log10)” value was determined as 0.0143.
“CCAGATGCATGGACCGGTTTTCCCGGTAATCCGTATTTGAT (site CCAGATGCTAT)”: the “recombinant UMI read abundance (log10)” value was found to be 1.26.
Regarding “CCAGATGCATGGACCGGTTTTCCCGGTAATCCGTATTTGAT (site CCAGCTGCTAT)”, the “recombinant UMI read abundance (log10)” value turned out to be 0.00516.
Then “CCAGATGCATGGACCGGTTTTCCCGGTAATCCGTATTTGAT (site CCAGGTGCTAT)”, with 0.261; and “CCAGATGCATGGACCGGTTTTCCCGGTAATCCGTATTTGAT (site CCAGTTGCTAT)”, with 0.00471.
With “CCAGCCCCATGGACCGGTTTTCCCGGTAATCCGTATTTGCC (site CCAGCCCCTGG)”, the “recombinant UMI read abundance (log10)” value came out at 0.451.
With “CCAGGATCATGGACCGGTTTTCCCGGTAATCCGTATTTGCA (site ACAGTATCTTG)”, the “recombinant UMI read abundance (log10)” value worked out at 0.
For “CCAGGATCATGGACCGGTTTTCCCGGTAATCCGTATTTGCA (site CCAGGATCTTG)”, the “recombinant UMI read abundance (log10)” value came to 0.424.
For “CCAGGTGCATGGACCGGTTTTCCCGGTAATCCGTATTTGAT (site ACAGGTGCTAT)”, the “recombinant UMI read abundance (log10)” value was 0.0184.
Consider “CCAGGTGCATGGACCGGTTTTCCCGGTAATCCGTATTTGAT (site CAAGGTGCTAT)”, for which the “recombinant UMI read abundance (log10)” value stood at 0.441.
Then “CCAGGTGCATGGACCGGTTTTCCCGGTAATCCGTATTTGAT (site CCAAGTGCTAT)”, with 1.24; and “CCAGGTGCATGGACCGGTTTTCCCGGTAATCCGTATTTGAT (site CCACGTGCTAT)”, with 0.497; and “CCAGGTGCATGGACCGGTTTTCCCGGTAATCCGTATTTGAT (site CCAGATGCTAT)”, with 1.74.
Regarding “CCAGGTGCATGGACCGGTTTTCCCGGTAATCCGTATTTGAT (site CCAGCTGCTAT)”, the “recombinant UMI read abundance (log10)” value is 0.00488.
For the sequence “CCAGGTGCATGGACCGGTTTTCCCGGTAATCCGTATTTGAT (site CCAGGAGCTAT)”, the “recombinant UMI read abundance (log10)” value was determined as 0.984.
For the sequence “CCAGGTGCATGGACCGGTTTTCCCGGTAATCCGTATTTGAT (site CCAGGCGCTAT)”, the “recombinant UMI read abundance (log10)” value came out at 0.436.
The value for “CCAGGTGCATGGACCGGTTTTCCCGGTAATCCGTATTTGAT (site CCAGGGGCTAT)” was 1.32; that for “CCAGGTGCATGGACCGGTTTTCCCGGTAATCCGTATTTGAT (site CCAGGTACTAT)” was 0.835; that for “CCAGGTGCATGGACCGGTTTTCCCGGTAATCCGTATTTGAT (site CCAGGTCCTAT)” was 0.
Turning to “CCAGGTGCATGGACCGGTTTTCCCGGTAATCCGTATTTGAT (site CCAGGTGCTAA)”, the “recombinant UMI read abundance (log10)” value was 0.0192.
The value for “CCAGGTGCATGGACCGGTTTTCCCGGTAATCCGTATTTGAT (site CCAGGTGCTAC)” was 0.227; that for “CCAGGTGCATGGACCGGTTTTCCCGGTAATCCGTATTTGAT (site CCAGGTGCTAG)” was 0.
The value for “CCAGGTGCATGGACCGGTTTTCCCGGTAATCCGTATTTGAT (site CCAGGTGCTAT)” was 1.32.
In the case of “CCAGGTGCATGGACCGGTTTTCCCGGTAATCCGTATTTGAT (site CCAGGTGCTCT)”, the “recombinant UMI read abundance (log10)” value amounted to 0.00956.
Regarding “CCAGGTGCATGGACCGGTTTTCCCGGTAATCCGTATTTGAT (site CCAGGTGCTGT)”, the “recombinant UMI read abundance (log10)” value is 0.
Consider “CCAGGTGCATGGACCGGTTTTCCCGGTAATCCGTATTTGAT (site CCAGGTGCTTT)”, for which the “recombinant UMI read abundance (log10)” value was 0.206.
For “CCAGGTGCATGGACCGGTTTTCCCGGTAATCCGTATTTGAT (site CCAGGTTCTAT)”, the “recombinant UMI read abundance (log10)” value was 0.204.
As for “CCAGGTGCATGGACCGGTTTTCCCGGTAATCCGTATTTGAT (site CCAGTTGCTAT)”, the “recombinant UMI read abundance (log10)” value was 0.00491.
In the case of “CCAGGTGCATGGACCGGTTTTCCCGGTAATCCGTATTTGAT (site CCATGTGCTAT)”, the “recombinant UMI read abundance (log10)” value was determined as 0.018.
In the case of “CCAGGTGCATGGACCGGTTTTCCCGGTAATCCGTATTTGAT (site CCCGGTGCTAT)”, the “recombinant UMI read abundance (log10)” value stood at 0.433.
“CCAGGTGCATGGACCGGTTTTCCCGGTAATCCGTATTTGAT (site CCGGGTGCTAT)”: the “recombinant UMI read abundance (log10)” value worked out at 1.47.
For “CCAGGTGCATGGACCGGTTTTCCCGGTAATCCGTATTTGAT (site CCTGGTGCTAT)”, the “recombinant UMI read abundance (log10)” value turned out to be 0.
In the case of “CCAGGTGCATGGACCGGTTTTCCCGGTAATCCGTATTTGAT (site CGAGGTGCTAT)”, the “recombinant UMI read abundance (log10)” value turned out to be 0.0036.
For the sequence “CCAGGTGCATGGACCGGTTTTCCCGGTAATCCGTATTTGAT (site CTAGGTGCTAT)”, the “recombinant UMI read abundance (log10)” value stood at 0.629.
For the sequence “CCAGGTGCATGGACCGGTTTTCCCGGTAATCCGTATTTGAT (site GCAGGTGCTAT)”, the “recombinant UMI read abundance (log10)” value amounted to 0.00654.
